# Reference: patent publication US20190010167A1, “INHIBITORS OF THE MENIN-MLL INTERACTION” (Vitae Pharmaceuticals, Inc., priority 2015, published 2019)
# Counter-ions that a name gives are not always drawn.
# Tests used:
# [1] = target: T1, mutated menin / MLL-AF9 fusion protein (Homo sapiens, UniProt O00255); test: AlphaLISA menin/MLL binding assay, mutated menin (Assay 1); settings: biotinylated mutated menin 5 nM, MLL-AF9-FLAG lysate, read-out: Assay 1 Mutant Menin IC50
# T1 construct: biotinylated (1) wild-type menin or (2) mutated menin (described in Nature (2012) Vol. 482, pp. 542-548); fused on or other part: Biotin attached chemically with Sulfo-NHS-Biotin; This is a label, not a fusion
# T1 sequence (O00255 1-610): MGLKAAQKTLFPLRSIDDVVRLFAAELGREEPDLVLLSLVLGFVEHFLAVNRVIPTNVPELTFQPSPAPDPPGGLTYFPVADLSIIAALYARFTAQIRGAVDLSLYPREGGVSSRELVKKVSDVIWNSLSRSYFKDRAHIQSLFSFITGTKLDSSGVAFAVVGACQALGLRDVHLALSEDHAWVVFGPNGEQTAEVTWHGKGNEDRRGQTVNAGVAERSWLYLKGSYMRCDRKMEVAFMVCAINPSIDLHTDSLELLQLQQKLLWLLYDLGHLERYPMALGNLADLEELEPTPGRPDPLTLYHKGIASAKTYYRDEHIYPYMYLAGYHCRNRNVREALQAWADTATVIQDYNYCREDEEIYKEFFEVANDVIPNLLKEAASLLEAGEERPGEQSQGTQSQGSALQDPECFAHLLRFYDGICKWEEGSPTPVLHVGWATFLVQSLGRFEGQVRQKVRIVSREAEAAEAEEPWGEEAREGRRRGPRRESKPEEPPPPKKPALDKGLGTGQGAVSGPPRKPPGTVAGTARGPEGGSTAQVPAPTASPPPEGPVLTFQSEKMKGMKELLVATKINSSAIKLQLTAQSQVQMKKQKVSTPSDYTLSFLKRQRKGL
# Procedure: Potencies of inhibitor compounds against menin/MLL binding were assessed by AlphaLISA assay using biotinylated (1) wild-type menin or (2) mutated menin (described in Nature (2012) Vol. 482, pp. 542-548) and MLL-AF9 fusion protein bearing a FLAG epitope at its C-terminus. Menin proteins were expressed in E. coli and covalently modified with biotin using EZ-Link™ Sulfo-NHS-Biotin (ThermoFisher Cat. No. 21217) according to manufacturer's protocol. MLL1-1,396 fused to AF91-92 and the C-terminal FLAG peptide was expressed in HEK293 cells and used as a lysate cleared at 21,000×g for 10 min.
# Compounds (2 μL of solutions in DMSO) were dispensed in white 96-well half-area plates (Corning Cat. No. 3693) and incubated for 30 min at RT with 5 nM biotinylated menin and appropriate amount of MLL-AF9-FLAG lysate in 40 μL of 50 mM Tris-HCl buffer pH 7.4 containing 5% (v/v) DMSO, 50 mM NaCl, 0.01% (w/v) bovine serum albumin (BSA) and 1 mM DTT. To this incubation mixture, 40 μl of AlphaLISA anti-FLAG acceptor (PerkinElmer Cat. No. AL112C) and streptavidin donor (PerkinElmer Cat. No. 6760002) beads (10 μg/mL each) was added and incubation continued at RT for 60 min. Alpha (amplified luminescent proximity homogeneous assay) signal was measured on an Envision multi-label plate reader at the end of the incubation. All steps were conducted under dim fluorescent light.
# These percent inhibition values were regressed against compound concentrations in the assay using four parameter logit non-linear curve fitting (XLFit, IDBS). The IC50 values were derived from the curve fitting as inflection points on the dose-response curves and are set out in Table 1 below.
# [2] = target: T2, menin/MLL (Gal4-Menin and MLL1-46-VP16) in HEK293 cells (Homo sapiens, UniProt O00255); test: Mammalian cellular two-hybrid assay in HEK293 cells (Assay 2, cell assay); type: cell-based; settings: Gal4-Menin/MLL1-46-VP16 two-hybrid, NanoLuc luciferase reporter, 16-18 h
# T2 construct: expressed in transfected cells; host or cells: HEK293 (ATCC)
# T2 sequence (P04386 1-147 partner limits assumed, species assumed, one chain of several): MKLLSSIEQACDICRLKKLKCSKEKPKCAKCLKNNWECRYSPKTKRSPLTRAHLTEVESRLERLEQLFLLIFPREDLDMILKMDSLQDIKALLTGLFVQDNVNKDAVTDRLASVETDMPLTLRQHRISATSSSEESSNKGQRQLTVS
# Summary of the method: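 HEK293 cells co-transfected with Gal4-Menin, MLL1-46-VP16 and a 4×UAS secreted NanoLuc reporter, then exposed to compound for 16-18 h at 37 °C in 10% delipidated FBS (0.1% DMSO). Inhibition from secreted NanoLuc relative to DMSO and 5 μM MI-2-2, with 4-parameter IC50 fit. CellTiter-Glo measured toxicity.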
# [3] = target: T3, wild-type menin / MLL-AF9 fusion protein (Homo sapiens, UniProt O00255); test: AlphaLISA menin/MLL binding assay, wild-type menin (Assay 1); settings: biotinylated wild-type menin 5 nM, MLL-AF9-FLAG lysate
# T3 construct: made in house; host or cells: E. coli (menin); HEK293 cleared lysate (MLL-AF9-FLAG)
# T3 sequence (O00255 1-610): T1 sequence (O00255 1-610)
# Summary of the method: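 Biotinylated wild-type or mutated menin (5 nM, E. coli-expressed) was preincubated 30 min at RT with compound and HEK293 lysate containing MLL1-1,396–AF9 1-92–FLAG. Buffer was 50 mM Tris-HCl pH 7.4, 5% DMSO, 50 mM NaCl, 0.01% BSA, 1 mM DTT. Anti-FLAG acceptor and streptavidin donor beads (10 μg/mL each) were then added for 60 min. IC50 came from a four-parameter fit of the Alpha signal inhibition.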
SMILES,IC50 [1] [nM],IC50 [2] [nM],IC50 [3] [nM]
"CC1(C)CN=C(N2CC3(CCN(c4ncnc5sc(CC(F)(F)F)cc45)CC3)C2)S1 [Example 10, 4-(2-(5,5-dimethyl-4,5-dihydrothiazol-2-yl)-2,7-diazaspiro[3.5]nonan-7-yl)-6-(2,2,2-trifluoroethyl)thieno[2,3-d]pyrimidine]",100 to 1000,,
"CC(C)N1CCC2(CCN(c3ncnc4sc(CC(F)(F)F)cc34)CC2)C1 [Example 25, 4-(2-isopropyl-2,8-diazaspiro[4.5]decan-8-yl)-6-(2,2,2-trifluoroethyl)thieno[2,3-d]pyrimidine]",100 to 1000,≥ 1000,
"CC(C)CN1CCC2(CCN(c3ncnc4sc(CC(F)(F)F)cc34)CC2)C1 [Example 24, 4-(2-isobutyl-2,8-diazaspiro[4.5]decan-8-yl)-6-(2,2,2-trifluoroethyl)thieno[2,3-d]pyrimidine]",,≥ 1000,100 to 1000
"FC(F)(F)Cc1cc2c(N3CCC4(CCN(Cc5ccccc5)C4)CC3)ncnc2s1 [Example 23, 4-(2-benzyl-2,8-diazaspiro[4.5]decan-8-yl)-6-(2,2,2-trifluoroethyl)thieno[2,3-d]pyrimidine]",,≥ 1000,100 to 1000
"Cc1c(CN2CCC3(CCN(c4ncnc5sc(CC(F)(F)F)cc45)CC3)C2)ccc2[nH]c(C#N)cc12 [Example 26, 4-methyl-5-((8-(6-(2,2,2-trifluoroethyl)thieno[2,3-d]pyrimidin-4-yl)-2,8-diazaspiro[4.5]decan-2-yl)methyl)-1H-indole-2-carbonitrile]",,100 to 1000,< 100

# Now from value to molecule:
IC50 [1] [nM],IC50 [2] [nM],IC50 [3] [nM],SMILES
100 to 1000,,,"CC1(C)CN=C(N2CCC3(CCN(c4ncnc5sc(CC(F)(F)F)cc45)CC3)C2)S1 [Example 27, 4-(2-(5,5-dimethyl-4,5-dihydrothiazol-2-yl)-2,8-diazaspiro[4.5]decan-8-yl)-6-(2,2,2-trifluoroethyl)thieno[2,3-d]pyrimidine]"
,100 to 1000,< 100,"N#Cc1ccc(CN2CCC3(CCN(c4ncnc5sc(CC(F)(F)F)cc45)C3)C2)cc1 (stereo not drawn) [Example 33, 4-((7-(6-(2,2,2-trifluoroethyl)thieno[2,3-d]pyrimidin-4-yl)-2,7-diazaspiro[4.4]nonan-2-yl)methyl)benzonitrile]"
,< 100,< 100,"Cc1c(CN2CCC3(CC2)CN(c2ncnc4sc(CC(F)(F)F)cc24)C3)ccc2[nH]c(C#N)cc12 [Example 96, 4-methyl-5-((2-(6-(2,2,2-trifluoroethyl)thieno[2,3-d]pyrimidin-4-yl)-2,7-diazaspiro[3.5]nonan-7-yl)methyl)-1H-indole-2-carbonitrile hydrochloride]"
,100 to 1000,100 to 1000,"FC(F)(F)Cc1cc2c(N3CC4(CN(CC5CCOCC5)C4)C3)ncnc2s1 [Example 66, 4-(6-((tetrahydro-2H-pyran-4-yl)methyl)-2,6-diazaspiro[3.3]heptan-2-yl)-6-(2,2,2-trifluoroethyl)thieno[2,3-d]pyrimidine]"
,100 to 1000,< 100,"FC(F)(F)Cc1cc2c(N3CCC4(CCN(Cc5ccc6cc[nH]c6c5)C4)C3)ncnc2s1 (stereo not drawn) [Example 29, 4-(7-((1H-indol-6-yl)methyl)-2,7-diazaspiro[4.4]nonan-2-yl)-6-(2,2,2-trifluoroethyl)thieno[2,3-d]pyrimidine]"
,100 to 1000,100 to 1000,"FC(F)(F)Cc1cc2c(N3CC4(CCN(Cc5ccccc5)CC4)C3)ncnc2s1 [Example 98, 4-(7-benzyl-2,7-diazaspiro[3.5]nonan-2-yl)-6-(2,2,2-trifluoroethyl)thieno[2,3-d]pyrimidine]"
≥ 1000,,,"CC1(C)CN=C(N2CC3(C2)CN(c2ncnc4ccc(OC(F)(F)F)cc24)C3)S1 [Example 88, 5,5-dimethyl-2-(6-(6-(trifluoromethoxy)quinazolin-4-yl)-2,6-diazaspiro[3.3]heptan-2-yl)-4,5-dihydrothiazole]"
